# Assay results from US8653092B2, “Tetrahydro-pyrido-pyrimidine derivatives” (Novartis AG, priority 2010, dated 2014).
# Key:
# PI3K delta = PI3K delta (Homo sapiens (Human), UniProt O00329); assay: Enzymatic PI3K delta isoform inhibition (lipid kinase, Kinase-Glo luminescence); type: biochemical; settings: enzymatic assay
# PI3K alpha = PI3K alpha (Homo sapiens (Human), UniProt P42336); assay: Enzymatic PI3K alpha isoform inhibition (lipid kinase, Kinase-Glo luminescence); type: biochemical; settings: enzymatic assay
# Sequence of PI3K alpha (P42336 other isoform, or with tags, fused parts or gaps): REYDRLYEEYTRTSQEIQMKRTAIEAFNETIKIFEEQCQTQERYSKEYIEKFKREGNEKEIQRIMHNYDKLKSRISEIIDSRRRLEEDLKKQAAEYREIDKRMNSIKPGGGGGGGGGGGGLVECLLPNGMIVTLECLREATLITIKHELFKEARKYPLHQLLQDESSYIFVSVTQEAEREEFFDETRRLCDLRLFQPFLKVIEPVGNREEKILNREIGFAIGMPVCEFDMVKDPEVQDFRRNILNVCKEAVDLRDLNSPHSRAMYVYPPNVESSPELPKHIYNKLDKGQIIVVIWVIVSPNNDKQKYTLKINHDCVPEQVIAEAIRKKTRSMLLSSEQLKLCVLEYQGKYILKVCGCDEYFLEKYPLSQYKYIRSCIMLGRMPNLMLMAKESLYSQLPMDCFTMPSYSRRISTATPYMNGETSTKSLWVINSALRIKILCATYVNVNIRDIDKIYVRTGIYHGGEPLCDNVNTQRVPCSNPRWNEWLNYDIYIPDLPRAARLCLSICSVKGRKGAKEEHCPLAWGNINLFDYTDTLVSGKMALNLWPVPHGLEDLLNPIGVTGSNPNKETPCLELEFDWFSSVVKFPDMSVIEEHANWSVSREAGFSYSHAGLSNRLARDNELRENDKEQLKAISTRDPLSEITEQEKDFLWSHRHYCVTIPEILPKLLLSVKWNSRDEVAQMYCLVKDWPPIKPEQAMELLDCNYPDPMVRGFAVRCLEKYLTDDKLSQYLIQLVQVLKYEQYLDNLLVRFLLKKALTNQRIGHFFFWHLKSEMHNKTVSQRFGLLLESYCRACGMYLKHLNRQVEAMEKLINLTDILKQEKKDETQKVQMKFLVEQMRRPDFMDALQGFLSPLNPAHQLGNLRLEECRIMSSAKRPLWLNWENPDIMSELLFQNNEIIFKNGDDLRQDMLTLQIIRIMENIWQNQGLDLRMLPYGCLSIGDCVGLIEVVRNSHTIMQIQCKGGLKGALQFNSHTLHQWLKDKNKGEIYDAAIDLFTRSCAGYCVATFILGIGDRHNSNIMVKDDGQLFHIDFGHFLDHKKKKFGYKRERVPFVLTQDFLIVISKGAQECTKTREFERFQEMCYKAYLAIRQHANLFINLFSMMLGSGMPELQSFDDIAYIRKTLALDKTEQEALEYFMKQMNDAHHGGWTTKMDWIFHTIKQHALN
# Sequence of PI3K delta (O00329 other isoform, or with tags, fused parts or gaps linker GGGGGG): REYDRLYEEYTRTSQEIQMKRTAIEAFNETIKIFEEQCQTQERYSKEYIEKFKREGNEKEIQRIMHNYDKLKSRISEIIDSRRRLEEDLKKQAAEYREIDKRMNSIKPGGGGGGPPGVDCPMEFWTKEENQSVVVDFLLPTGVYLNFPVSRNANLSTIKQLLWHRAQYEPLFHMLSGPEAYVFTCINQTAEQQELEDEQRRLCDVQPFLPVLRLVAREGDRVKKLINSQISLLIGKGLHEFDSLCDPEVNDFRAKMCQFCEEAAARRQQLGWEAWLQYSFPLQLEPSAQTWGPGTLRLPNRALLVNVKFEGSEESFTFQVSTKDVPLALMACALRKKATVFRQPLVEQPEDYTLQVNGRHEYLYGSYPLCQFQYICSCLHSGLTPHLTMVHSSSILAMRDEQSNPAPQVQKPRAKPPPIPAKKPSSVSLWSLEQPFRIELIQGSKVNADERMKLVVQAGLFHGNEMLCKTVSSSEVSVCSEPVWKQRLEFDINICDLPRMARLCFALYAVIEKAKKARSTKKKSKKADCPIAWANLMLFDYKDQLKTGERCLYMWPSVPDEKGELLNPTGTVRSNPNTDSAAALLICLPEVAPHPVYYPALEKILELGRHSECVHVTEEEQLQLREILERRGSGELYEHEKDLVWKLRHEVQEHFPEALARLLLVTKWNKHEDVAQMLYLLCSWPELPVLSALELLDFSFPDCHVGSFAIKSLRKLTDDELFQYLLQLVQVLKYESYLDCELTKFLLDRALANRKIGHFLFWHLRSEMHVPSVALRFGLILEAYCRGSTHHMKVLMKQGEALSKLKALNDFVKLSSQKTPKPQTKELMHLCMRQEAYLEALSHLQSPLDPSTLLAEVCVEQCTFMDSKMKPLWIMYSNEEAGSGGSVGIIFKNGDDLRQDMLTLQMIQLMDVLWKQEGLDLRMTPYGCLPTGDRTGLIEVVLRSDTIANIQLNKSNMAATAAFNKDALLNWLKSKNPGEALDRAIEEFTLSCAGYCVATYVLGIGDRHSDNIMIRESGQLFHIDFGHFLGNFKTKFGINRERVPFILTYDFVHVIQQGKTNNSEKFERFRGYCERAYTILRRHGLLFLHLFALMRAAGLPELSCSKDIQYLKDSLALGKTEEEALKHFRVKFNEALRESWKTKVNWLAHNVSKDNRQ
IC50 (PI3K delta),IC50 (PI3K alpha),Structure (SMILES)
0.004 µM,,"COc1ncc(N2CCc3ncnc(N[C@H]4CCN(C(=O)[C@H]5CC[C@@H](OC)CC5)C4)c3C2)cc1C(F)(F)F (single isomer, unassigned) [Example 73]"
0.004 µM,,"COc1ncc(N2CCc3ncnc(N[C@H]4CCN(C(=O)[C@H]5CC[C@H](OC)CC5)C4)c3C2)cc1C(F)(F)F (single isomer, unassigned) [Example 74]"
0.004 µM,0.118 µM,"COc1ncc(N2CCc3ncnc(N[C@H]4CCN(C(=O)[C@H]5CC[C@@H](O)CC5)C4)c3C2)cc1C(F)(F)F (single isomer, unassigned) [Example 75]"
0.007 µM,0.106 µM,"COc1ncc(N2CCc3ncnc(N[C@H]4CCN(C(=O)[C@H]5CC[C@H](O)CC5)C4)c3C2)cc1C(F)(F)F (single isomer, unassigned) [Example 76]"
0.009 µM,3.39 µM,"COc1ncc(N2CCc3ncnc(O[C@H]4CCN(C(=O)C5CCOCC5)C4)c3C2)c(OC)n1 [Example 2, {(S)-3-[6-(2,4-Dimethoxy-pyrimidin-5-yl)-5,6,7,8-tetrahydro-pyrido[4,3-d]pyrimidin-4-yloxy]-pyrrolidin-1-yl}-(tetrahydro-pyran-4-yl)-methanone]"
0.015 µM,2.39 µM,"COc1ncc(N2CCc3ncnc(O[C@H]4CCN(C(=O)C5CCOCC5)C4)c3C2)cc1C#N [Example 3, 2-Methoxy-5-{4-[(S)-1-(tetrahydro-pyran-4-carbonyl)-pyrrolidin-3-yloxy]-7,8-dihydro-5H-pyrido[4,3-d]pyrimidin-6-yl}-nicotinonitrile]"
0.033 µM,1.76 µM,"CCC(=O)N1CC[C@H](Oc2ncnc3c2CN(c2cnc(OC)c(OC)c2)CC3)C1 [Example 4, 1-{(S)-3-[6-(5,6-Dimethoxy-pyridin-3-yl)-5,6,7,8-tetrahydro-pyrido[4,3-d]pyrimidin-4-yloxy]-pyrrolidin-1-yl}-propan-1-one]"
0.044 µM,0.987 µM,"N#Cc1cc(N2CCc3ncnc(O[C@H]4CCN(C(=O)C5CCOCC5)C4)c3C2)cnc1N [Example 6, 2-Amino-5-{4-[(S)-1-(tetrahydro-pyran-4-carbonyl)-pyrrolidin-3-yloxy]-7,8-dihydro-5H-pyrido[4,3-d]pyrimidin-6-yl}-nicotinonitrile]"
0.013 µM,1.97 µM,COc1ncc(N2CCc3ncnc(O[C@H]4CCN(C(=O)C5CCOCC5)C4)c3C2)cc1F [Example 7]
0.027 µM,2.49 µM,"COCC(=O)N1CC[C@H](Oc2ncnc3c2CN(c2cnc(OC)c(C#N)c2)CC3)C1 [Example 8, 2-Methoxy-5-{4-[(S)-1-(2-methoxy-acetyl)-pyrrolidin-3-yloxy]-7,8-dihydro-5H-pyrido[4,3-d]pyrimidin-6-yl}-nicotinonitrile]"
0.009 µM,2.91 µM,"COc1ncc(N2CCc3ncnc(O[C@H]4CCN(C(=O)C5CCCC5)C4)c3C2)cc1C#N [Example 9, 5-[4-((S)-1-Cyclopentanecarbonyl-pyrrolidin-3-yloxy)-7,8-dihydro-5H-pyrido[4,3-d]pyrimidin-6-yl]-2-methoxy-nicotinonitrile]"
0.009 µM,0.668 µM,"COc1ncc(N2CCc3ncnc(O[C@H]4CCN(C(=O)c5oc(C)nc5C)C4)c3C2)cc1C [Example 10, (2,4-Dimethyl-oxazol-5-yl)-{(S)-3-[6-(6-methoxy-5-methyl-pyridin-3-yl)-5,6,7,8-tetrahydro-pyrido[4,3-d]pyrimidin-4-yloxy]-pyrrolidin-1-yl}-methanone]"
0.011 µM,1.2 µM,"COc1ncc(N2CCc3ncnc(O[C@H]4CCN(C(=O)c5ccoc5)C4)c3C2)cc1C [Example 11, Furan-3-yl-{(S)-3-[6-(6-methoxy-5-methyl-pyridin-3-yl)-5,6,7,8-tetrahydro-pyrido[4,3-d]pyrimidin-4-yloxy]-pyrrolidin-1-yl}-methanone]"
0.012 µM,0.952 µM,"COc1ncc(N2CCc3ncnc(O[C@H]4CCN(C(=O)c5cnco5)C4)c3C2)cc1C [Example 12, {(S)-3-[6-(6-Methoxy-5-methyl-pyridin-3-yl)-5,6,7,8-tetrahydro-pyrido[4,3-d]pyrimidin-4-yloxy]-pyrrolidin-1-yl}-oxazol-5-yl-methanone]"
0.013 µM,1.8 µM,"COc1ncc(N2CCc3ncnc(O[C@H]4CCN(C(=O)c5cncn5C)C4)c3C2)cc1C [Example 13, {(S)-3-[6-(6-Methoxy-5-methyl-pyridin-3-yl)-5,6,7,8-tetrahydro-pyrido[4,3-d]pyrimidin-4-yloxy]-pyrrolidin-1-yl}-(3-methyl-3H-imidazol-4-yl)-methanone]"
0.013 µM,1.83 µM,"COc1ncc(N2CCc3ncnc(O[C@H]4CCN(C(=O)c5coc(C)n5)C4)c3C2)cc1C [Example 14, {(S)-3-[6-(6-Methoxy-5-methyl-pyridin-3-yl)-5,6,7,8-tetrahydro-pyrido[4,3-d]pyrimidin-4-yloxy]-pyrrolidin-1-yl}-(2-methyl-oxazol-4-yl)-methanone]"
0.014 µM,1.63 µM,"COc1ncc(N2CCc3ncnc(O[C@H]4CCN(C(=O)C5CC(OC)C5)C4)c3C2)cc1C (stereo partly drawn) [Example 15, (3-Methoxy-cyclobutyl)-{(S)-3-[6-(6-methoxy-5-methyl-pyridin-3-yl)-5,6,7,8-tetrahydro-pyrido[4,3-d]pyrimidin-4-yloxy]-pyrrolidin-1-yl}-methanone]"
0.016 µM,1.68 µM,COc1ncc(N2CCc3ncnc(O[C@H]4CCN(C(=O)c5cocn5)C4)c3C2)cc1C [Example 16]
0.017 µM,7.68 µM,"COc1ncc(N2CCc3ncnc(O[C@H]4CCN(C(=O)C5CCN(C(C)=O)CC5)C4)c3C2)cc1C [Example 17, 1-(4-{(S)-3-[6-(6-Methoxy-5-methyl-pyridin-3-yl)-5,6,7,8-tetrahydro-pyrido[4,3-d]pyrimidin-4-yloxy]-pyrrolidine-1-carbonyl}-piperidin-1-yl)-ethanone]"
0.033 µM,0.871 µM,"COc1ncc(N2CCc3ncnc(O[C@H]4CCN(C(=O)c5ocnc5C)C4)c3C2)cc1C [Example 18, {(S)-3-[6-(6-Methoxy-5-methyl-pyridin-3-yl)-5,6,7,8-tetrahydro-pyrido[4,3-d]pyrimidin-4-yloxy]-pyrrolidin-1-yl}-(4-methyl-oxazol-5-yl)-methanone]"
0.033 µM,3.06 µM,"COc1ncc(N2CCc3ncnc(O[C@H]4CCN(C(=O)c5ccc(=O)[nH]c5)C4)c3C2)cc1C [Example 19, 5-{(S)-3-[6-(6-Methoxy-5-methyl-pyridin-3-yl)-5,6,7,8-tetrahydro-pyrido[4,3-d]pyrimidin-4-yloxy]-pyrrolidine-1-carbonyl}-1H-pyridin-2-one]"
0.008 µM,0.32 µM,"COc1cc(N2CCc3ncnc(O[C@H]4CCN(C(=O)c5cocn5)C4)c3C2)cnc1OC [Example 21, {(S)-3-[6-(5,6-Dimethoxy-pyridin-3-yl)-5,6,7,8-tetrahydro-pyrido[4,3-d]pyrimidin-4-yloxy]-pyrrolidin-1-yl}-oxazol-4-yl-methanone]"
0.008 µM,0.58 µM,"COc1cc(N2CCc3ncnc(O[C@H]4CCN(C(=O)c5cnco5)C4)c3C2)cnc1OC [Example 22, {(S)-3-[6-(5,6-Dimethoxy-pyridin-3-yl)-5,6,7,8-tetrahydro-pyrido[4,3-d]pyrimidin-4-yloxy]-pyrrolidin-1-yl}-oxazol-5-yl-methanone]"
0.01 µM,0.129 µM,"COc1cc(N2CCc3ncnc(O[C@H]4CCN(C(=O)c5coc(C)n5)C4)c3C2)cnc1OC [Example 23, {(S)-3-[6-(5,6-Dimethoxy-pyridin-3-yl)-5,6,7,8-tetrahydro-pyrido[4,3-d]pyrimidin-4-yloxy]-pyrrolidin-1-yl}-(2-methyl-oxazol-4-yl)-methanone]"
0.009 µM,0.374 µM,"COc1cc(N2CCc3ncnc(O[C@H]4CCN(C(=O)C5CCOC(C)(C)C5)C4)c3C2)cnc1OC (stereo partly drawn) [Example 24, {(S)-3-[6-(5,6-Dimethoxy-pyridin-3-yl)-5,6,7,8-tetrahydro-pyrido[4,3-d]pyrimidin-4-yloxy]-pyrrolidin-1-yl}-(2,2-dimethyl-tetrahydro-pyran-4-yl)-methanone]"
0.026 µM,0.82 µM,"COc1cc(N2CCc3ncnc(O[C@H]4CCN(C(=O)c5oc(C)nc5C)C4)c3C2)cnc1OC [Example 25, {(S)-3-[6-(5,6-Dimethoxy-pyridin-3-yl)-5,6,7,8-tetrahydro-pyrido[4,3-d]pyrimidin-4-yloxy]-pyrrolidin-1-yl}-(2,4-dimethyl-oxazol-5-yl)-methanone]"
0.021 µM,0.368 µM,"COc1cc(N2CCc3ncnc(O[C@H]4CCN(C(=O)C5CCC(F)(F)CC5)C4)c3C2)cnc1OC [Example 26, (4,4-Difluoro-cyclohexyl)-{(S)-3-[6-(5,6-dimethoxy-pyridin-3-yl)-5,6,7,8-tetrahydro-pyrido[4,3-d]pyrimidin-4-yloxy]-pyrrolidin-1-yl}-methanone]"
0.021 µM,,"COc1ncc(N2CCc3ncnc(O[C@H]4CCN(C(=O)N5CCN(C)CC5)C4)c3C2)cc1C(F)(F)F [Example 85, {(S)-3-[6-(6-methoxy-5-trifluoromethyl-pyridin-3-yl)-5,6,7,8-tetrahydro-pyrido[4,3-d]pyrimidin-4-yloxy]-pyrrolidin-1-yl}-(4-methyl-piperazin-1-yl)-methanone]"
0.038 µM,,"COC(=O)N1CC[C@H](Oc2ncnc3c2CN(c2cnc(OC)c(C#N)c2)CC3)C1 [Example 90, (S)-3-[6-(5-cyano-6-methoxy-pyridin-3-yl)-5,6,7,8-tetrahydro-pyrido[4,3-d]pyrimidin-4-yloxy]-pyrrolidine-1-carboxylic acid methyl ester]"
,1.71 µM,"COc1ncc(N2CCc3ncnc(O[C@H]4CCN(C(=O)c5cnco5)C4)c3C2)cc1C(F)(F)F [Example 94, {(S)-3-[6-(6-Methoxy-5-trifluoromethyl-pyridin-3-yl)-5,6,7,8-tetrahydro-pyrido[4,3-d]pyrimidin-4-yloxy]-pyrrolidin-1-yl}-oxazol-5-yl-methanone]"
